This assay deals with T1, Human SST5 somatostatin receptor (Homo sapiens, UniProt P35346).
T1 construct: expressed in transfected cells; host or cells: HEK-293 EBNA cells (membranes)
In words: Filter plate radio-ligand binding assay for SST5 receptor ([125I]SST-14 displacement). The note with it: for % SST5 radio-ligand binding displaced at conc 0.5: conc 0.5 μM; for % SST5 radio-ligand binding displaced at conc 1.0: conc 1.0 μM; for % SST5 radio-ligand binding displaced at conc 10: conc 10 μM; for % SST5 radio-ligand binding displaced at conc 0.25: conc 0.25 μM.

Here are results for nine compounds from patent US8426345B2, “Method of drug design” (Alchemia Limited, priority 2005, dated 2013).

SMILES strings stand for the structures.

T1 sequence (P35346 whole entry): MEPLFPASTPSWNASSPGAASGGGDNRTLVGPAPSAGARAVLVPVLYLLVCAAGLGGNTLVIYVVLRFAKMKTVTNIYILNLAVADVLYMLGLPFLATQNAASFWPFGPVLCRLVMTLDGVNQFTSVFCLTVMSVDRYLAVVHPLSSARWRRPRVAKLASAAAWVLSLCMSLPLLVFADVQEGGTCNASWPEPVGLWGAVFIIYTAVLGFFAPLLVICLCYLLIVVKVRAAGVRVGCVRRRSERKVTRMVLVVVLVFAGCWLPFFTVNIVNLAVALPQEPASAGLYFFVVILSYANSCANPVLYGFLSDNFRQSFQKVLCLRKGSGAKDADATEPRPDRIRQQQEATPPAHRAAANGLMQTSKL

Regarding `COCC1OC(OCc2ccc3ccccc3c2)C(NC(=O)CCCN)C(OCc2ccc(Cl)cc2)C1O` (mixture of isomers) [Compound 127], under “conc 0.001 μM, 3P library”, the “% SST5 radio-ligand binding displaced at conc 0.001” value is “− (% SST5 radio-ligand binding displaced at cone (μM) −<40%)”. Besides, the “% SST5 radio-ligand binding displaced at conc 0.10” value (conc 0.10 μM, 3P library) is recorded as “− (% SST5 radio-ligand binding displaced at cone (μM) −<40%)”. For the same compound, for the setting “3P library”, the “% SST5 radio-ligand binding displaced at conc 0.5” value was “++ (% SST5 radio-ligand binding displaced at conc (μM) >60%)”, the “% SST5 radio-ligand binding displaced at conc 1.0” value was “++ (% SST5 radio-ligand binding displaced at conc (μM) >60%)” and the “% SST5 radio-ligand binding displaced at conc 10” value is listed as “++ (% SST5 radio-ligand binding displaced at conc (μM) >60%)”.
In the case of `COC[C@H]1O[C@H](OCc2ccc3ccccc3c2)[C@H](NC(=O)C(C)CN)[C@@H](OCc2ccc3ccccc3c2)[C@@H]1O` (some centres unmarked) [Compound 99], under “3P library”, the “% SST5 radio-ligand binding displaced at conc 0.25” value was “− (% SST5 radio-ligand binding displaced at cone (μM) −<40%)” and the “% SST5 radio-ligand binding displaced at conc 1.0” value is recorded as “+ (% SST5 radio-ligand binding displaced at cone (μM) 60>+>40%)”.
With `COC[C@H]1O[C@@H](OCc2ccc(Cl)cc2)[C@H](NC(=O)CCN)[C@@H](OC)[C@@H]1O` [Compound 20], the “% SST5 radio-ligand binding displaced at conc 50” value (compound conc 50 μM, 2P library) is “− (% SST5 radio-ligand binding displaced at cone (μM) −<40%)”. Where the note is “compound conc 250 μM, 2P library”, the “% SST5 radio-ligand binding displaced at conc 250” value was “− (% SST5 radio-ligand binding displaced at cone (μM) −<40%)”. The “% SST5 radio-ligand binding displaced at conc 500” value (compound conc 500 μM, 2P library) was “+ (% SST5 radio-ligand binding displaced at cone (μM) 60>+>40%)”.
For `COC1C(O)C(COCc2ccc(Cl)cc2)OC(OCc2ccc3ccccc3c2)C1NC(=O)CCCN` (mixture of isomers) [Compound 124], for the setting “3P library”, the “% SST5 radio-ligand binding displaced at conc 0.5” value is reported as “− (% SST5 radio-ligand binding displaced at cone (μM) −<40%)” and the “% SST5 radio-ligand binding displaced at conc 10” value is “+ (% SST5 radio-ligand binding displaced at cone (μM) 60>+>40%)”.
`COC[C@H]1O[C@H](OCc2ccc3ccccc3c2)[C@H](NC(=O)CCCN)[C@@H](OCc2nccc3ccccc23)[C@@H]1O` [Compound 149]: for the setting “3P library”, the “% SST5 radio-ligand binding displaced at conc 0.25” value is “− (% SST5 radio-ligand binding displaced at cone (μM) −<40%)” and the “% SST5 radio-ligand binding displaced at conc 1.0” value is “+ (% SST5 radio-ligand binding displaced at cone (μM) 60>+>40%)”.
Regarding `COC[C@H]1O[C@@H](OCc2ccc3ccccc3c2)[C@H](NC(=O)CCN)[C@@H](OC)[C@@H]1O` [Compound 61], the “% SST5 radio-ligand binding displaced at conc 50” value (conc 50 μM, 3P library) is listed as “− (% SST5 radio-ligand binding displaced at cone (μM) −<40%)”. Also, the “% SST5 radio-ligand binding displaced at conc 250” value (conc 250 μM, 3P library) is recorded as “+ (% SST5 radio-ligand binding displaced at cone (μM) 60>+>40%)”. For the same compound, the “% SST5 radio-ligand binding displaced at conc 500” value (conc 500 μM, 3P library) is on record as “++ (% SST5 radio-ligand binding displaced at conc (μM) >60%)”.
For `COC[C@H]1O[C@H](OCc2ccc3ccccc3c2)[C@H](NC(=O)CCCN)[C@@H](OC)[C@@H]1O` [Compound 119], the “% SST5 radio-ligand binding displaced at conc 50” value (conc 50 μM, 3P library) is “− (% SST5 radio-ligand binding displaced at cone (μM) −<40%)”. The “% SST5 radio-ligand binding displaced at conc 250” value (conc 250 μM, 3P library) is “+ (% SST5 radio-ligand binding displaced at cone (μM) 60>+>40%)”. Moreover, the “% SST5 radio-ligand binding displaced at conc 500” value (conc 500 μM, 3P library) is listed as “++ (% SST5 radio-ligand binding displaced at conc (μM) >60%)”.
In the case of `COCC1OC(OCc2ccc3ccccc3c2)C(NC(=O)CCN)C(OCc2ccccc2)C1O` (mixture of isomers) [Compound 65], under “3P library”, the “% SST5 radio-ligand binding displaced at conc 10” value was “++ (% SST5 radio-ligand binding displaced at conc (μM) >60%)”.
Regarding `COC[C@H]1OC(OCc2ccc(Cl)cc2)[C@H](NC(=O)CN)[C@@H](OCc2ccc(-c3ccccc3)cc2)[C@@H]1O` (single isomer, unassigned) [Compound 172], under “3P library”, the “% SST5 radio-ligand binding displaced at conc 0.25” value is “− (% SST5 radio-ligand binding displaced at cone (μM) −<40%)” and the “% SST5 radio-ligand binding displaced at conc 1.0” value is on record as “− (% SST5 radio-ligand binding displaced at cone (μM) −<40%)”.
